Measured values published in patent US12544392B2, “Treatment of adenovirus infection or disease associated with adenovirus infection” (SymBio Pharmaceuticals Limited, priority 2023, dated 2026).
“Also recorded” adds a separate entry of the source.

Legend:
adenovirus (AdV) [1] = experiment: Analysis of AdV content in stool of patients by quantitative PCR; type: in vivo, human; conditions: for patients in whom AdV content in stool was reduced to ND during the study period: ND = not detected
Excerpt: In the clinical study of Example 1, the AdV contents in the stools of patients were examined. […] In the figure, D means detected, ND means not detected, and NP means not performed. A quantitative PCR method was used to analyze AdV contents.

[2] = Human clinical study: BCV-related adverse events (NCI CTCAE version 5.0); type: in vivo
Experimental: The study duration is at least 9 weeks, based on a screening period of 1 week, a treatment period of at least 4 weeks, and post-treatment follow-up period of 30 days. In the screening, after informed consent has been obtained from the patients, a screening evaluation is conducted to determine eligibility for the study. On the first day of the first week of the treatment period, patients are assigned a dose based on the applicable cohort (see the section 1.1.3 Cohorts 1-3 above). The duration of treatment is a minimum of 4 weeks and a maximum of 14 weeks, and termination is based on the treatment stopping criteria as described below. For patients who, at the physician's discretion, are assessed as being at high risk for AdV infection/recurrence of disease, the treatment period may be extended for up to 10 weeks, even after the 4-week treatment period is completed, if the AdV is not detected by the two most recent consecutive assays with an interval of 3 days at least. All patients are followed up for 30 days after the last dosing. Adverse events is evaluated according to the National Cancer Institute Common Terminology Criteria for Adverse Events (NCI CTCAE) version 5.0 (grade 1-5). Based on the results of the review of safety data from cohort 1, a decision is made whether to initiate cohort 2. Likewise, the decision to initiate cohort 3 is based on the results of the review of safety data from cohort 2. Enrollment in a new cohort is terminated immediately if grade 3 or higher adverse events are observed in more than 25% of all subjects in the previous cohort.

adenovirus (AdV) [3] = experiment: Human clinical study on treatment of AdV infectious disease: viral load of AdV in plasma by real-time qPCR; type: in vivo; conditions: for time for the levels of viral load to reach below the LOD: overall
Experimental: A human clinical study on the treatment of adenovirus (AdV) infectious disease was conducted according to the following procedure.
Patients aged 2 months or older who have asymptomatic AdV infection or AdV disease, have an underlying immunocompromised state, and have AdV viremia at a high level, including hematopoietic stem cell transplant recipients before the immune reconstitution by the graft cells is achieved, organ transplant recipients on medication with an immunosuppressant, and patients with immunodeficiency syndrome (patients with 10,000 or more copies/ml in a sample, or patients with 1,000 or more copies/ml in two samples while the second viral load is greater than the first viral load).
The brincidofovir (BCV) infusion is a sterile aqueous solution containing 10 mg/mL BCV.
• Product name: Brincidofovir (BCV) • Dosage form: Solution for infusion • Unit dose: 10 mg/mL (1 mL per vial) • Route of administration: Intravenous (IV) infusion • Physical description: Clear, colorless solution in a sterile glass vial • Storage: Refrigerated (2-8° C.) • Dosing: Continuous IV drip infusion administered over a period of 2 hours twice weekly (on Days 1 and 4) 1.1.3 Dose • Cohort 1:0.2 mg/kg (if body weight≥50 kg, 10 mg/dose), twice weekly • Cohort 2:0.3 mg/kg (if body weight≥50 kg, 15 mg/dose), twice weekly • Cohort 3:0.4 mg/kg (if body weight≥50 kg, 20 mg/dose), twice weekly 1.1.4 Drug Administration
The dose of BCV 10 mg/mL solution for infusion is prepared based on the patient's body weight.
Preparation: Using a sterile syringe and needle, transfer 1 mL of IV BCV solution from one vial into a 100-mL glucose 5% IV bag to make a diluted dosing solution. For more than 10 mg/dose, prepare one additional diluted dosing solution in the same procedure mentioned above. Gently invert the bag at least 5 times to mix. Note: No vigorous shaking of the solution in a vial or the diluted dosing solution in a bag.
Administer the appropriate volume of diluted dosing solution based on the patient's body weight. Each dose is administered intravenously at a constant rate over 2 hours. Upon completion of the administration, the IV line is flushed with glucose 5% or dextrose 5% to ensure the IV line has been cleared of all active drug. If required per institutional practice, the flush of glucose 5% or dextrose 5% may be followed by a flush with normal saline. Diluted dosing solution should be prepared at the time of use in principle and should not be prepared the day before.
Subjects 101-12 of cohort 2, and 101-15, 101-18 and 110-06 of cohort 3 took cyclosporine, an immunosuppressive drug, during the treatment period (duration of treatment) of intravenous BCV. Prior PK studies in healthy subjects have shown a significant increase in plasma BCV exposure with concomitant intravenous infusion of BCV and cyclosporine. […] In view of the above, for the above patients taking cyclosporine, any of the doses indicated in 1.1.3 (cohorts 1-3) above is reduced to 60% for administration. Note that when cyclosporine is administered as BID (twice daily) oral or injectable form, the administration is conducted with an interval of 2 hours after the completion of intravenous BCV. In the case of continuous infusion of cyclosporine for 24 hours, no interval is needed.
The study duration is at least 9 weeks, based on a screening period of 1 week, a treatment period of at least 4 weeks, and post-treatment follow-up period of 30 days. In the screening, after informed consent has been obtained from the patients, a screening evaluation is conducted to determine eligibility for the study. On the first day of the first week of the treatment period, patients are assigned a dose based on the applicable cohort (see the section 1.1.3 Cohorts 1-3 above). The duration of treatment is a minimum of 4 weeks and a maximum of 14 weeks, and termination is based on the treatment stopping criteria as described below. […]

[4] = cohort 2: 0.3 mg/kg IV twice weekly
[5] = cohort 3: 0.4 mg/kg IV twice weekly
[6] = cohort 1: 0.2 mg/kg IV twice weekly
[7] = cohort 3: 0.4 mg/kg IV twice weekly, of 10 cases

In the case of CCCCCCCCCCCCCCCCOCCCOP(=O)(O)CO[C@H](CO)Cn1ccc(N)nc1=O [BCV, [(2S)-1-(4-amino-2-oxopyrimidin-1-yl)-3-hydroxypropan-2-yl]oxymethyl-(3-hexadecoxypropoxy)phosphinic acid], the “patients in whom AdV content in stool was reduced to ND during the study period” value (adenovirus (AdV) [1]; [4]) is reported as 2 of 9, the “cases reduced to ND in which AdV was detected in stool in the following week” value (adenovirus (AdV) [1]; cohort 2: 0.3 mg/kg IV twice weekly, of the two cases) is reported as “one” and the “patients in whom AdV content in stool was reduced to ND during the study period” value (adenovirus (AdV) [1]; [5]) is reported as 5 of 8. For the same compound, the “BCV-related adverse event, grade (relatedness)” value (shortened to “BCV-related adverse event, grade”) ([2]; cohort 1 (0.2 mg/kg IV twice weekly), patient 109-01, 0.2 mg/kg) was “elevated aspartate transaminase (AST)—grade 1 (probably); also recorded: elevated alanine transaminase (ALT)—grade 1 (probably); also recorded: elevated lactate dehydrogenase (LDH)—grade 1 (possibly)”, the “BCV-related adverse event, grade” value ([2]; cohort 1 (0.2 mg/kg IV twice weekly), patient 110-01) was “diarrhea—grade 2 (possibly)” and the “Grade 3 adverse events (number)” value [2, 6] was 0. The “BCV-related adverse event, grade” value ([2]; cohort 2 (0.3 mg/kg IV twice weekly), patient 101-09) was “diarrhea—grade 3 (possibly)”, the “BCV-related adverse event, grade” value ([2]; cohort 2 (0.3 mg/kg IV twice weekly), patient 101-14) was “hypertransaminasemia—grade 3 (possibly)” and the “BCV-related adverse event, grade” value ([2]; cohort 2 (0.3 mg/kg IV twice weekly), patient 109-03) was “nausea—grade 1 (possibly)”. For the same compound, the “Grade 3 adverse events (number)” value [2, 4] was 2, the “BCV-related adverse event, grade” value ([2]; cohort 3 (0.4 mg/kg IV twice weekly), patient 102-02, 0.4 mg/kg) was “increased ALT—grade 3 (possibly); also recorded: increased AST—grade 3 (possibly)” and the “BCV-related adverse event, grade” value ([2]; cohort 3 (0.4 mg/kg IV twice weekly), patient 109-04, 0.4 mg/kg) was “feeling of a racing heart—grade 1 (possibly); also recorded: nausea—grade 1 (possibly)”. For the same compound, the “Grade 3 adverse events (number)” value [2, 5] was 1, the “patients in whom the levels of viral load of AdV reached below the LOD” value (adenovirus (AdV) [3]; cohort 1: 0.2 mg/kg (10 mg/dose if body weight ≥50 kg) IV twice weekly, plasma, LOD 25 copies/ml) was “two” and the “cases with relapse among those that reached below the LOD” value (adenovirus (AdV) [3]; [6]) was “One”. The patients who died (adenovirus (AdV) [3]; [6]) was “one”, the “patients in whom the levels of viral load of AdV reached below the LOD” value (adenovirus (AdV) [3]; cohort 2: 0.3 mg/kg (15 mg/dose if body weight ≥50 kg) IV twice weekly, plasma, LOD 25 copies/ml) was 5 patients and the patients who died (adenovirus (AdV) [3]; [4]) was “one”. The “time for the levels of viral load to reach below the LOD” value (adenovirus (AdV) [3]; cohort 2: 0.3 mg/kg IV twice weekly, the 5 cases) was “longer time”, the “cases in which the levels of viral load of AdV reached below the LOD” value (adenovirus (AdV) [3]; cohort 3: 0.4 mg/kg (20 mg/dose if body weight ≥50 kg) IV twice weekly, plasma, LOD 25 copies/ml, all cases) was 10 cases and the relapse or death (adenovirus (AdV) [3]; [5]) was “No patient relapsed or died”. For the same compound, the “patients whose levels of viral load reached below the LOD within 4 weeks” value (adenovirus (AdV) [3]; [7]) was 8 patients, the “remaining patients whose levels of viral load reached below the LOD at Week 5 and 6” value (adenovirus (AdV) [3]; [7]) was 2 patients and the “time for the levels of viral load to reach below the LOD” value (adenovirus (AdV) [3]; cohort 3: 0.4 mg/kg IV twice weekly, the 10 cases) was “shorter time”. For the same compound, the “time at which the viral load of AdV was reduced to a level below the LOD” value (adenovirus (AdV) [3]; patient 110-05 in cohort 3 (0.4 mg/kg IV twice weekly)) was 3 Week.
